According to patent US20250360109A1, “COMPOSITIONS AND METHODS FOR TREATING DEPRESSION IN FEMALES” (priority 2022, published 2025):

What was measured:
[1] = test system: adult subjects with major depressive disorder (MDD); assay: Phase 2 placebo-controlled study in MDD, Quality of Life Enjoyment and Satisfaction Questionnaire-Short Form (Q-LES-Q-SF); type: in vivo, human; settings: mITT; for Change from Baseline, Q-LES-Q-SF Total at Week 2, LSM Difference (95% CI) / Change from Baseline, Q-LES-Q-SF Total at Week 4, LSM Difference (95% CI): 20 mg/day vs Placebo; for Change from Baseline, Q-LES-Q-SF Total at Week 2, Mean (SD) / Change from Baseline, Q-LES-Q-SF Total at Week 2, Median / Change from Baseline, Q-LES-Q-SF Total at Week 4, Mean (SD) / Change from Baseline, Q-LES-Q-SF Total at Week 4, Median / Q-LES-Q-SF Total at Week 2, Mean (SD) / Q-LES-Q-SF Total at Week 2, Median / Q-LES-Q-SF Total at Week 4, Mean (SD) / Q-LES-Q-SF Total at Week 4, Median: 20 mg/day
Experimental: (§1) A Phase 2, multicenter, double-blind, randomized, placebo-controlled study of the safety and efficacy of SP-624 in the treatment of adult subjects with major depressive disorder (MDD) as defined by the Diagnostic and Statistical Manual of Mental Disorders, Fifth Edition (DSM-5) was carried out. Following the successful completion of a Screening Phase, subjects were randomized to one of two treatment groups in a 1:1 ratio and received Compound 1 (SP-624) or placebo over a treatment period of four weeks (Treatment Group #1: SP-624 20 mg/day; Treatment Group #2: Placebo).
(§2) Prior to initiating the 4-week treatment period, subjects completed a Screening/Baseline period of up to 28 days, during which time all screening assessments were performed, and any current depression medications discontinued. All screening assessments were completed before discontinuing any current depression medications. Subjects returned for a Baseline Visit to complete efficacy and safety assessments. During the treatment period, subjects returned to the investigative site to complete efficacy and safety assessments at the end of Weeks 1, 2, 3, and 4. After the final dose of study drug, subjects completed a follow-up period of two weeks and returned at the end of Weeks 5 and 6. Subjects may be treated with anti-depressant medications according to physician recommendations after completion of the Week 5 Visit.
(§3) Each dose of Compound 1 was supplied as two capsules, each containing 10 mg of active pharmaceutical ingredient (API). Matching placebo capsules identical in shape and color to the active capsules were used.
(§4) Secondary efficacy endpoints included: • Change from Baseline to Weeks 1, 2, and 3 in MADRS total score, • Change from Baseline to Weeks 1, 2, 3, and 4 in Clinical Global Impression-Severity (CGI-S) total score, • Change from Baseline to Week 5 and change from Week 4 to Week 5 in MADRS total score and CGI-S total score, • Change from Baseline to Week 2 and Week 4 in the 17-item Hamilton Depression Rating Scale (HAM D-17) total score, • Change from Baseline to Week 2 and Week 4 in the Sheehan Disability Scale (SDS), • Change from Baseline to Week 2 and Week 4 in the Quick Inventory of Depressive Symptomology-Self Report (QIDS-SR), and • Change from Baseline to Week 2 and Week 4 in the Quality of Life Enjoyment and Satisfaction Questionnaire-Short Form (Q-LES-Q-SF).

[2] = test system: adult subjects with major depressive disorder (MDD); assay: Phase 2 placebo-controlled study in MDD, Montgomery-Asberg Depression Rating Scale (MADRS) total score; type: in vivo, human; settings: for Change from Baseline, MADRS Total at Week 1, LSM Difference (95% CI) / Change from Baseline, MADRS Total at Week 2, LSM Difference (95% CI) / Change from Baseline, MADRS Total at Week 3, LSM Difference (95% CI) / Change from Baseline, MADRS Total at Week 4, LSM Difference (95% CI): 20 mg/day vs Placebo, MMRM; for Change from Baseline, MADRS Total at Week 1, LSM Difference (95% CI) / Change from Baseline, MADRS Total at Week 2, LSM Difference (95% CI) / Change from Baseline, MADRS Total at Week 3, LSM Difference (95% CI) / Change from Baseline, MADRS Total at Week 4, LSM Difference (95% CI) / Change from Baseline, MADRS Total at Week 1, Mean (SD) / Change from Baseline, MADRS Total at Week 1, Median / Change from Baseline, MADRS Total at Week 2, Mean (SD) / Change from Baseline, MADRS Total at Week 2, Median / Change from Baseline, MADRS Total at Week 3, Mean (SD) / Change from Baseline, MADRS Total at Week 3, Median / Change from Baseline, MADRS Total at Week 4, Mean (SD) / Change from Baseline, MADRS Total at Week 4, Median / MADRS Total at Week 1, Mean (SD) / MADRS Total at Week 1, Median / MADRS Total at Week 2, Mean (SD) / MADRS Total at Week 2, Median / MADRS Total at Week 3, Mean (SD) / MADRS Total at Week 3, Median / MADRS Total at Week 4, Mean (SD) / MADRS Total at Week 4, Median: mITT; for Change from Baseline, MADRS Total at Week 1, Mean (SD) / Change from Baseline, MADRS Total at Week 1, Median / Change from Baseline, MADRS Total at Week 2, Mean (SD) / Change from Baseline, MADRS Total at Week 2, Median / Change from Baseline, MADRS Total at Week 3, Mean (SD) / Change from Baseline, MADRS Total at Week 3, Median / Change from Baseline, MADRS Total at Week 4, Mean (SD) / Change from Baseline, MADRS Total at Week 4, Median / MADRS Total at Week 1, Mean (SD) / MADRS Total at Week 1, Median / MADRS Total at Week 2, Mean (SD) / MADRS Total at Week 2, Median / MADRS Total at Week 3, Mean (SD) / MADRS Total at Week 3, Median / MADRS Total at Week 4, Mean (SD) / MADRS Total at Week 4, Median: 20 mg/day
Experimental: as §1, §2, §3
The primary efficacy endpoint was Change from Baseline to Week 4 in Montgomery-Asberg Depression Rating Scale (MADRS) total score.
as §4

COC1=CC(=O)C[C@@H](C)[C@]12Oc1c(Cl)c(-c3nnc(C)o3)cc(OC)c1C2=O [SP-624, (2S,6′R)-7-Chloro-2′,4-dimethoxy-6′-methyl-6-(5-methyl-1,3,4-oxadiazol-2-yl)-3H-spiro[1-benzofuran-2,1′-cyclohex [2]ene]-3,4′-dione]
Change from Baseline, Q-LES-Q-SF Total at Week 2, LSM Difference (95% CI) ([1]; Female): 1.1 (−1.8, 3.9) | Change from Baseline, Q-LES-Q-SF Total at Week 4, LSM Difference (95% CI) ([1]; Female): 3.3 (−0.3, 6.8) | Change from Baseline, Q-LES-Q-SF Total at Week 2, Mean (SD) ([1]; Female): 7.8 (10.32) | Change from Baseline, Q-LES-Q-SF Total at Week 2, Median ([1]; Female): 6 | Change from Baseline, Q-LES-Q-SF Total at Week 4, Mean (SD) ([1]; Female): 11.4 (14.11) | Change from Baseline, Q-LES-Q-SF Total at Week 4, Median ([1]; Female): 10 | Q-LES-Q-SF Total at Week 2, Mean (SD) ([1]; Female): 59.2 (11.32) | Q-LES-Q-SF Total at Week 2, Median ([1]; Female): 59 | Q-LES-Q-SF Total at Week 4, Mean (SD) ([1]; Female): 62.1 (13.87) | Q-LES-Q-SF Total at Week 4, Median ([1]; Female): 59 | Change from Baseline, Q-LES-Q-SF Total at Week 2, LSM Difference (95% CI) ([1]; Male): −2.2 (−6.7, 2.3) | Change from Baseline, Q-LES-Q-SF Total at Week 4, LSM Difference (95% CI) ([1]; Male): −1.3 (−6.4, 3.7) | Change from Baseline, Q-LES-Q-SF Total at Week 2, Mean (SD) ([1]; Male): 5.5 (10.39) | Change from Baseline, Q-LES-Q-SF Total at Week 2, Median ([1]; Male): 4 | Change from Baseline, Q-LES-Q-SF Total at Week 4, Mean (SD) ([1]; Male): 7.1 (11.54) | Change from Baseline, Q-LES-Q-SF Total at Week 4, Median ([1]; Male): 6 | Q-LES-Q-SF Total at Week 2, Mean (SD) ([1]; Male): 59.5 (12.80) | Q-LES-Q-SF Total at Week 2, Median ([1]; Male): 59 | Q-LES-Q-SF Total at Week 4, Mean (SD) ([1]; Male): 61.5 (12.26) | Q-LES-Q-SF Total at Week 4, Median ([1]; Male): 61 | Change from Baseline, MADRS Total at Week 1, LSM Difference (95% CI) ([2]; Female): −0.9 (−2.8, 1.1) | Change from Baseline, MADRS Total at Week 2, LSM Difference (95% CI) ([2]; Female): −1.9 (−4.3, 0.5) | Change from Baseline, MADRS Total at Week 3, LSM Difference (95% CI) ([2]; Female): −3.5 (−6.2, −0.8) | Change from Baseline, MADRS Total at Week 4, LSM Difference (95% CI) ([2]; Female): −3.9 (−6.8, −1.0) | Change from Baseline, MADRS Total at Week 1, Mean (SD) ([2]; Female): −6.6 (6.19) | Change from Baseline, MADRS Total at Week 1, Median ([2]; Female): −6 | Change from Baseline, MADRS Total at Week 2, Mean (SD) ([2]; Female): −10.1 (8.20) | Change from Baseline, MADRS Total at Week 2, Median ([2]; Female): −8 | Change from Baseline, MADRS Total at Week 3, Mean (SD) ([2]; Female): −12.5 (9.74) | Change from Baseline, MADRS Total at Week 3, Median ([2]; Female): −11 | Change from Baseline, MADRS Total at Week 4, Mean (SD) ([2]; Female): −13.5 (10.40) | Change from Baseline, MADRS Total at Week 4, Median ([2]; Female): −13 | MADRS Total at Week 1, Mean (SD) ([2]; Female): 26.7 (8.10) | MADRS Total at Week 1, Median ([2]; Female): 27 | MADRS Total at Week 2, Mean (SD) ([2]; Female): 23.1 (8.76) | MADRS Total at Week 2, Median ([2]; Female): 25 | MADRS Total at Week 3, Mean (SD) ([2]; Female): 20.8 (10.11) | MADRS Total at Week 3, Median ([2]; Female): 21 | MADRS Total at Week 4, Mean (SD) ([2]; Female): 19.8 (10.75) | MADRS Total at Week 4, Median ([2]; Female): 21 | Change from Baseline, MADRS Total at Week 1, LSM Difference (95% CI) ([2]; Male): 0.7 (−2.7, 4.1) | Change from Baseline, MADRS Total at Week 2, LSM Difference (95% CI) ([2]; Male): −0.7 (−4.1, 2.8) | Change from Baseline, MADRS Total at Week 3, LSM Difference (95% CI) ([2]; Male): 2.2 (−1.3, 5.8) | Change from Baseline, MADRS Total at Week 4, LSM Difference (95% CI) ([2]; Male): 2.7 (−0.8, 6.3) | Change from Baseline, MADRS Total at Week 1, Mean (SD) ([2]; Male): −6.6 (7.04) | Change from Baseline, MADRS Total at Week 1, Median ([2]; Male): −5 | Change from Baseline, MADRS Total at Week 2, Mean (SD) ([2]; Male): −9.8 (8.94) | Change from Baseline, MADRS Total at Week 2, Median ([2]; Male): −9 | Change from Baseline, MADRS Total at Week 3, Mean (SD) ([2]; Male): −10.6 (9.28) | Change from Baseline, MADRS Total at Week 3, Median ([2]; Male): −9 | Change from Baseline, MADRS Total at Week 4, Mean (SD) ([2]; Male): −11.4 (9.44) | Change from Baseline, MADRS Total at Week 4, Median ([2]; Male): −10 | MADRS Total at Week 1, Mean (SD) ([2]; Male): 25.5 (7.31) | MADRS Total at Week 1, Median ([2]; Male): 26 | MADRS Total at Week 2, Mean (SD) ([2]; Male): 22.6 (9.35) | MADRS Total at Week 2, Median ([2]; Male): 24 | MADRS Total at Week 3, Mean (SD) ([2]; Male): 21.4 (9.60) | MADRS Total at Week 3, Median ([2]; Male): 22 | MADRS Total at Week 4, Mean (SD) ([2]; Male): 20.8 (9.61) | MADRS Total at Week 4, Median ([2]; Male): 21 | lowering the MADRS score by an average of ([2]; females, therapeutically effective): 3.9 points | effect on MADRS score ([2]; males): no effect
